Experiment [1] deals with T1, Tryptophan 2,3-dioxygenase (Homo sapiens, UniProt P48775). The experiment is described as follows: Inhibition of recombinant full length C-terminal His-tagged human TDO expressed in Escherichia coli using L-Trp as substrate after 30 mins.
In experiment [2] the target is T1, Tryptophan 2,3-dioxygenase. As to the kind of experiment: Uncompetitive inhibition of recombinant full length C-terminal His-tagged human TDO expressed in Escherichia coli using L-Trp as substrate after 30 mins by Dixon plot analysis.
Experiment [3] concerns the target T1, Tryptophan 2,3-dioxygenase. The experiment is described as follows: Inhibition of TDO in human U87 MG cells using L-Trp as substrate after 8 hrs. It counts as cell-based, U-87MG ATCC.
For experiment [4], the target named is T1, Tryptophan 2,3-dioxygenase. The experiment is described as follows: Inhibition of TDO (unknown origin) expressed in HEK293 cells using L-Trp as substrate after 8 hrs. The class given is cell-based.
In experiment [5] the target is T1, Tryptophan 2,3-dioxygenase. The experiment is described as follows: Mixed type […] inhibition of recombinant full length C-terminal His-tagged human TDO expressed in Escherichia coli using L-Trp as substrate after 30 mins by Dixon plot analysis.
The species entered for a further experiment is Homo sapiens. The experiment is described as follows: Selectivity ratio of IC50 for IDO1 (unknown origin) to IC50 for recombinant full length C-terminal His-tagged human TDO.
For experiment [6], the target named is T1, Tryptophan 2,3-dioxygenase. The experiment is described as follows: Inhibition of TDO (unknown origin).
Experiment [7] addresses Indoleamine 2,3-dioxygenase 1 (Homo sapiens, UniProt P14902). As to the kind of experiment: Inhibition of IDO1 (unknown origin).

Molecules are shown by their SMILES.

Broadly, the IC50 is the concentration at which inhibition is half-maximal. Usually Ki stands for the dissociation constant of the complex between target and ligand, obtained from inhibition or displacement.

T1 sequence (P48775 whole entry): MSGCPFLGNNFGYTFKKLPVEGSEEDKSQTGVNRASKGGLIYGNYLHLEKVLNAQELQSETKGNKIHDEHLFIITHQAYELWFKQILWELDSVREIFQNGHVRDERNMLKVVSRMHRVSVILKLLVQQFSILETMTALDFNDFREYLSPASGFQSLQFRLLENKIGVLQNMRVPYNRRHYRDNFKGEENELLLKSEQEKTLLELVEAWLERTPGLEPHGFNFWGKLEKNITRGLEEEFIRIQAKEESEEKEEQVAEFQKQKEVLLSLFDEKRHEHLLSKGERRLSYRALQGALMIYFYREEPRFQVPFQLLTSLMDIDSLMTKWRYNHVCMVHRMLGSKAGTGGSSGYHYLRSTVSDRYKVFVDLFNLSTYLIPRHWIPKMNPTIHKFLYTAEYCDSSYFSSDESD
Chain of Indoleamine 2,3-dioxygenase 1 (P14902 whole entry): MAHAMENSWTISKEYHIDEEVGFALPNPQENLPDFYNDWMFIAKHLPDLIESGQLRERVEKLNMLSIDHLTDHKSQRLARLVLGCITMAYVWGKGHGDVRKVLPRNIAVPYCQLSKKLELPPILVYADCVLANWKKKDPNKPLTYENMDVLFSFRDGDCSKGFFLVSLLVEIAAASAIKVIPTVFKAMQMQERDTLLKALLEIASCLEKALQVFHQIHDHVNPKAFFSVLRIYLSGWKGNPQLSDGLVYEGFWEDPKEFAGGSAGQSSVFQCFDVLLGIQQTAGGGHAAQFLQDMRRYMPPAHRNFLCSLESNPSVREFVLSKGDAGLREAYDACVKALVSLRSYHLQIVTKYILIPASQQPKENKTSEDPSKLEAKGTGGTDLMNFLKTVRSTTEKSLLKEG

On to `NS(=O)(=O)NCCNc1nonc1C(=NO)Nc1ccc(F)c(Br)c1` [EPACADOSTAT], for which the IC50 in experiment [1] is 64500 nM; in experiment [3] it was 260 nM; in experiment [4] it was 242 nM. The Ki in experiment [2] was 21700 nM.
On to `O=C1c2ccccc2-n2c1nc1ccc(F)cc1c2=O`, for which the concentration for half-maximal inhibition (IC50) was 9810 nM in experiment [1], 503 nM in experiment [3] and 241 nM in experiment [4]. Further, the Ki in experiment [5] stood at 876 nM. Besides, the Ratio IC50 in the experiment filed under Homo sapiens was found to be 88.
With `O=C1c2ccccc2-n2c1nc1ccccc1c2=O` [TRYPTANTHRIN], the IC50 in experiment [1] was found to be 3940 nM; in experiment [3], 194 nM; in experiment [4], 140 nM. Moreover, the inhibitory constant (Ki) in experiment [2] came to 581 nM.
For `O=C1c2c(Cl)cccc2-n2c1nc1ccccc1c2=O`, in that order: 44800 nM, 227 nM, 229 nM and 8410 nM.
Regarding `O=C1c2cc(F)ccc2-n2c1nc1ccccc1c2=O`, the IC50 in experiment [1] stood at 937 nM; in experiment [3], 60 nM; in experiment [4], 68 nM. Besides, the inhibition constant (Ki) in experiment [2] amounted to 336 nM.
As to `O=C1c2ccc(Cl)cc2-n2c1nc1ccccc1c2=O`, the IC50 in experiment [1] is 224000 nM; in experiment [3] it was 957 nM; in experiment [4], 733 nM. Moreover, the Ki in experiment [5] was 42700 nM.
The matching figures for `O=C1c2cc(F)ccc2-n2c1nc1ccc(F)cc1c2=O`: 1490 nM, 62 nM, 59 nM and 1000 nM.
On to `O=C1c2cc(Br)ccc2-n2c1nc1ccccc1c2=O`, for which the figures for the IC50 in experiment [1], in experiment [3] and in experiment [4] were 937 nM, 54 nM and 53 nM, respectively. Also, in experiment [2], the inhibition constant Ki worked out at 356 nM.
For `Cc1ccc2c(c1)C(=O)c1nc3ccccc3c(=O)n1-2`, the 50% inhibitory concentration (IC50) in experiment [1] was 3230 nM; in experiment [3] it was 184 nM; in experiment [4] it was 215 nM. The inhibitory constant (Ki) in experiment [5] was found to be 834 nM. Besides, the Ratio IC50 in the experiment listed under Homo sapiens was 38.
With `O=C1c2cc(O)c(O)cc2OC(c2ccc(O)c(O)c2)C1O` (centres undefined), the inhibitory constant (Ki) in experiment [6] is 16000 nM; in experiment [7], above 100000 nM.
With `O=C1c2cc([N+](=O)[O-])ccc2-n2c1nc1ccccc1c2=O`, the half-maximal inhibitory concentration (IC50) is 101 nM in experiment [1], 40 nM in experiment [3] and 61 nM in experiment [4]. Also, in experiment [2], the Ki is 215 nM.

Values taken from ChEMBL document CHEMBL4382205, “Tryptophan 2,3-dioxygenase inhibitory activities of tryptanthrin derivatives” (Eur J Med Chem, 2018).
